Laboratory results from patent US7419969B2 (Bristol-Myers Squibb Company, priority 2004, dated 2008).

Target: T1, HIV-integrase (Human immunodeficiency virus type 1 group M subtype B, UniProt P04585)
T1 construct: Recombinant integrase (0.26 ng) was incubated with the beads
Assay: in-vitro activity against HIV-integrase (HIV Integrase Inhibition, SPA bead assay)
Format: biochemical
Settings: Table 1; recombinant integrase, activity class
Experimental: To evaluate in-vitro activity against HIV-integrase, 5 pmole of biotin labeled substrate DNA was bound to 100 μg of Streptavidin coated PVT SPA beads (Amersham Pharmacia Biotech). Recombinant integrase (0.26 ng) was incubated with the beads for 90 min at 37° C. Unbound enzyme was removed by washing the complex followed by addition of inhibitors and […] of P33 labeled target DNA. The reaction was stopped by adding EDTA to a final concentration of 10 mM. Samples were counted in TopCountNXT (Packard) and the CPM was used as a measure of integration. The reaction condition was as described in Engelman, A. and Craigie, R. J. Vitrol. 1996, 69, 5908. The sequences of substrate and target DNA were described in Nucleic Acid Research 1994, 22, 1121.

Compared with `O=C(NCc1cc(Cl)ccc1Cl)c1nc2n(c(=O)c1O)CCCC21CCC1` [Example 76, N-[(2,5-dichlorophenyl)methyl]-7′,8′-dihydro-3′-hydroxy-4′-oxo-spiro[cyclobutane-1,9′(6′H)-[4H]pyrido[1,2-α]pyrimidine]-2′-carboxamide], `O=C(NCc1ccccc1F)c1nc2n(c(=O)c1O)CCCC21CCC1` [Example 68, N-[(2-fluorophenyl)methyl]-7′,8′-dihydro-3′-hydroxy-4′-oxo-spiro[cyclobutane-1,9′(6′H)-[4H]pyrido[1,2-α]pyrimidine]-2′-carboxamide] is higher in IC50: 1 to 10 nM for the first, 10 to 100 nM for the second. The first is the more potent here.

`Cc1ccc(CNC(=O)c2nc3n(c(=O)c2O)CCCC32CCC2)cc1C` [Example 69, N-[(3,4-dimethylphenyl)methyl]-7′,8′-dihydro-3′-hydroxy-4′-oxo-spiro[cyclobutane-1,9′(6′H)-[4H]pyrido[1,2-α]pyrimidine]-2′-carboxamide] and `Cc1ccc(CNC(=O)c2nc3n(c(=O)c2O)CCCC32CCC2)cc1F` [Example 73, N-[(3-fluoro-4-methylphenyl)methyl]-7′,8′-dihydro-3′-hydroxy-4′-oxo-spiro[cyclobutane-1,9′(6′H)-[4H]pyrido[1,2-α]pyrimidine]-2′-carboxamide] fall in the same range of IC50: 1 to 10 nM for the first, 1 to 10 nM for the second.

`CN(C)S(=O)(=O)c1cc(F)ccc1CNC(=O)c1nc2n(c(=O)c1O)CCOC21CCCC1` [Example 28, N-[[(2-(dimethylamino)sulfonyl]-4-fluorophenyl)methyl]-6′,7′-dihydro-3′-hydroxy-4′-oxo-spiro[cyclopentane-1,9′(4′H)-pyrimido[2,1-c][1,4]oxazine]-2′-carboxamide] and `CS(=O)(=O)c1cc(F)ccc1CNC(=O)c1nc2n(c(=O)c1O)CCOC21CCOCC1` [Example 44, N-[[4-fluoro-2-(methylsulfonyl)phenyl]methyl]-2,3,5,6,6′,7′-hexahydro-3′-hydroxy-4′-oxo-spiro[4H-pyran-4,9′(4′H)-pyrimido[2,1-c][1,4]oxazine]-2′-carboxamide] fall in the same range of IC50: 1 to 10 nM for the first, 1 to 10 nM for the second.

`O=C(NCc1ccc(F)cc1-n1cncn1)c1nc2n(c(=O)c1O)CCCC21CCCC1` [Example 4, N-[[4-fluoro-2-(1H-1,2,4-triazol-1-yl)phenyl]methyl]-7′,8′-dihydro-3′-hydroxy-4′-oxo-spiro[cyclopentane-1,9′(6′H)-[4H]pyrido[1,2-α]pyrimidine]-2′-carboxamide] and `O=C(NCc1cc(F)ccc1-n1cncn1)c1nc2n(c(=O)c1O)CCCC21CCC1` [Example 77, N-[[5-fluoro-2-(1H-1,2,4-triazol-1-yl)phenyl]methyl]-7′,8′-dihydro-3′-hydroxy-4′-oxo-spiro[cyclobutane-1,9′(6′H)-[4H]pyrido[1,2-α]pyrimidine]-2′-carboxamide] fall in the same range of IC50: 1 to 10 nM for the first, 1 to 10 nM for the second.

`O=C(NCc1ccccc1-n1cncn1)c1nc2n(c(=O)c1O)CCCC21CCC1` [Example 80, N-[[2-(1H-1,2,4-triazol-1-yl)phenyl]methyl]-7′,8′-dihydro-3′-hydroxy-4′-oxo-spiro[cyclobutane-1,9′(6′H)-[4H]pyrido[1,2-α]pyrimidine]-2′-carboxamide] and `O=C(NCc1ccccc1-n1cncn1)c1nc2n(c(=O)c1O)CCCC21CCCC1` [Example 3, N-[[2-(1H-1,2,4-triazol-1-yl)phenyl]methyl]-7′,8′-dihydro-3′-hydroxy-4′-oxo-spiro[cyclopentane-1,9′(6′H)-[4H]pyrido[1,2-α]pyrimidine]-2′-carboxamide] fall in the same range of IC50: 1 to 10 nM for the first, 1 to 10 nM for the second.

`Cc1cc(CNC(=O)c2nc3n(c(=O)c2O)CCOC32CCOCC2)ccc1F` [Example 45, N-[(4-fluoro-3-methylphenyl)methyl]-2,3,5,6,6′,7′-hexahydro-3′-hydroxy-4′-oxo-spiro[4H-pyran-4,9′(4′H)-pyrimido[2,1-c][1,4]oxazine]-2′-carboxamide] and `O=C(NCc1ccc(F)cc1-n1cncn1)c1nc2n(c(=O)c1O)CCOC21CCOCC1` [Example 41] fall in the same range of IC50: 1 to 10 nM for the first, 1 to 10 nM for the second.

`O=C(NCc1ccc(F)cc1-n1cncn1)c1nc2n(c(=O)c1O)CCOC21CCCC1` [Example 17, N-[[4-fluoro-2-(1 H-1,2,4-triazol-1-yl)phenyl]methyl]-6′,7′-dihydro-3′-hydroxy-4′-oxo-spiro[cyclopentane-1,9′(4′H)-pyrimido[2,1-c][1,4]oxazine]-2′-carboxamide] and `O=C(NCc1ccc(F)cc1N1CCCCS1(=O)=O)c1nc2n(c(=O)c1O)CCOC21CCCC1` [Example 34, N-[[4-fluoro-2-(tetrahydro-1,1-dioxido-2H-1,2-thiazin-2-yl)phenyl]methyl]-6′,7′-dihydro-3′-hydroxy-4′-oxo-spiro[cyclopentane-1,9′(4′H)-pyrimido[2,1-c][1,4]oxazine]-2′-carboxamide] fall in the same range of IC50: 1 to 10 nM for the first, 1 to 10 nM for the second.

`O=C(NCc1ccccc1F)c1nc2n(c(=O)c1O)CCOC21CCCC1` [Example 24, N-[(2-fluorophenyl)methyl]-6′,7′-dihydro-3′-hydroxy-4′-oxo-spiro[cyclopentane-1,9′(4′H)-pyrimido[2,1-c][1,4]oxazine]-2′-carboxamide] and `O=C(NCCc1ccc(F)cc1)c1nc2n(c(=O)c1O)CCOC21CCCC1` [Example 30, N-[2-(4-fluorophenyl)ethyl]-6′,7′-dihydro-3′-hydroxy-4′-oxo-spiro[cyclopentane-1,9′(4H)-pyrimido[2,1-c][1,4]oxazine]-2′-carboxamide] fall in the same range of IC50: 10 to 100 nM for the first, 10 to 100 nM for the second.

First: O=C(NCCCc1ccc(F)cc1)c1nc2n(c(=O)c1O)CCOC21CCCC1 [Example 31, N-[3-(4-fluorophenyl)propyl]-6′,7′-dihydro-3′-hydroxy-4′-oxo-spiro[cyclopentane-1,9′(4′H)-pyrimido[2,1-c][1,4]oxazine]-2′-carboxamide]
Second: O=C(NCc1ccc(F)cc1)c1nc2n(c(=O)c1O)CCC21CCCC1 [Example 84, N-[(4-fluorophenyl)methyl]-6′,7′-dihydro-3′-hydroxy-4′-oxo-spiro[cyclopentane-1,8′(4′H)-pyrrole[1,2-α]pyrimidine]-2′-carboxamide]
The IC50 of the first is higher: 10 to 100 nM for the first, 1 to 10 nM for the second.

`O=C(NCc1cccc(F)c1-n1cncn1)c1nc2n(c(=O)c1O)CCCC21CCCC1` [Example 12, N-[[3-fluoro-2-(1H-1,2,4-triazol-1-yl)phenyl]methyl]-7′,8′-dihydro-3′-hydroxy-4′-oxo-spiro[cyclopentane-1,9′(6′H)-[4H]pyrido[1,2-α]pyrimidine]-2′-carboxamide] and `O=C(NCc1ccccc1)c1nc2n(c(=O)c1O)CCCC21CCC1` [Example 62, N-(phenylmethyl)-7′,8′-dihydro-3′-hydroxy-4′-oxo-spiro[cyclobutane-1,9′(6′H)-[4H]pyrido[1,2-α]pyrimidine]-2′-carboxamide] fall in the same range of IC50: 1 to 10 nM for the first, 1 to 10 nM for the second.

Same assay, conditions: Table 1a; recombinant integrase, activity class

First: Cc1ncnn1-c1cc(F)ccc1CNC(=O)c1nc2n(c(=O)c1O)CCN(C)C21CCCCC1 [Example 97, Spiro[cyclohexane-1,9′(6′H)-[4H]pyrazino[1,2-a]pyrimidine]-2′-carboxamide, N-[[4-fluoro-2-(5-methyl-1H-1,2,4-triazol-1-yl)phenyl]methyl]-7′,8′-dihydro-3′-hydroxy-8′-methyl-4′-oxo-]
Second: CN1CCn2c(nc(C(=O)NCc3ccc(F)cc3-n3cncn3)c(O)c2=O)C12CCCC2 [Example 93, Spiro[cyclopentane-1,9′(6′H)-[4H]pyrazino[1,2-a]pyrimidine]-2′-carboxamide, N-[[4-fluoro-2-(1H-1,2,4-triazol-1-yl)phenyl]methyl]-7′,8′-dihydro-3′-hydroxy-8′-methyl-4′-oxo-]
The IC50 of the first is higher: 10 to 100 nM for the first, 1 to 10 nM for the second.

First: CS(=O)(=O)c1cc(F)ccc1CNC(=O)c1nc2n(c(=O)c1O)CCOC21COC1 [Example 111, Spiro[oxetane-3,9′(4′H)-pyrimido[2,1-c][1,4]oxazine]-2′-carboxamide, N-[[4-fluoro-2-(methylsulfonyl)phenyl]methyl]-6′,7′-dihydro-3′-hydroxy-4′-oxo-]
Second: O=C(NCc1ccc(F)cc1)c1nc2n(c(=O)c1O)CCOC21COC1 [Example 109, Spiro[oxetane-3,9′(4′H)-pyrimido[2,1-c][1,4]oxazine]-2′-carboxamide, N-[(4-fluorophenyl)methyl]-6′,7′-dihydro-3′-hydroxy-4′-oxo-]
The IC50 of the first is higher: 10 to 100 nM for the first, 1 to 10 nM for the second. The second is the more potent here.

`O=C(NCc1ccc(F)cc1)c1nc2n(c(=O)c1O)CCCOC21CCOCC1` [Example 114, Spiro[4H-pyran-4,10′(4′H)-[6H]pyrimido[2,1-c][1,4]oxazepine]-2′-carboxamide, N-[(4-fluorophenyl)methyl]-2,3,5,6,7′,8′-hexahydro-3′-hydroxy-4′-oxo-] and `Cc1ncn(-c2cc(F)ccc2CNC(=O)c2nc3n(c(=O)c2O)CCCOC32CCC2)n1` [Example 123, Spiro[cyclobutane-1,10′(4′H)-[6H]pyrimido[2,1-c][1,4]oxazepine]-2′-carboxamide, N-[[4-fluoro-2-(3-methyl-1H-1,2,4-triazol-1-yl)phenyl]methyl]-7′,8′-dihydro-3′-hydroxy-4′-oxo-] fall in the same range of IC50: 1 to 10 nM for the first, 1 to 10 nM for the second.

Compared with `Cc1cnnn1-c1cc(F)ccc1CNC(=O)c1nc2n(c(=O)c1O)CCOC21CCC1` [Example 104, Spiro[cyclobutane-1,9′(4′H)-pyrimido[2,1-c][1,4]oxazine]-2′-carboxamide, N-[[4-fluoro-2-(5-methyl-1H-1,2,3-triazol-1-yl)phenyl]methyl]-6′,7′-dihydro-3′-hydroxy-4′-oxo-], `Cc1nc(C)n(-c2cc(F)ccc2CNC(=O)c2nc3n(c(=O)c2O)CCCOC32CCC2)n1` [Example 128, Spiro[cyclobutane-1,10′(4′H)-[6H]pyrimido[2,1-c][1,4]oxazepine]-2′-carboxamide, N-[[2-(3,5-dimethyl-1H-1,2,4-triazol-1-yl)-4-fluorophenyl]methyl]-7′,8′-dihydro-3′-hydroxy-4′-oxo-] is higher in IC50: 1 to 10 nM for the first, 10 to 100 nM for the second.
